From ChEMBL document CHEMBL2016439, “Antitumor activity of annonaceous acetogenins in HepS and S180 xenografts bearing mice” (Bioorg Med Chem Lett, 2012)
Calls of active or inactive are those of the source. The rule behind the calls is not given here.

Assays:
[1] = Antitumor activity against mouse HepS cells allografted in Kunming mouse assessed as tumor growth inhibition at 15 ug/kg, ip qd administered 24 hrs post challenge for 10 days; type: functional; conditions: read-out: GI
[2] = system: HepS; experiment: Antitumor activity against mouse HepS cells allografted in ip dosed Kunming mouse assessed as tumor growth inhibition administered qd 24 hrs post challenge for 10 days; type: functional, organism-based
[3] = system: CCRF S-180; experiment: Antitumor activity against mouse S180 cells allografted in ip dosed Kunming mouse assessed as tumor growth inhibition administered qd 24 hrs post challenge for 10 days; type: functional, organism-based
[4] = system: CCRF S-180; experiment: Antitumor activity against mouse S180 cells allografted in Kunming mouse assessed as tumor growth inhibition at 15 ug/kg, ip qd administered 24 hrs post challenge for 10 days; type: functional; conditions: CCRF S-180, ip, read-out: GI
[5] = Antitumor activity against mouse HepS cells allografted in Kunming mouse assessed as tumor growth inhibition at 60 ug/kg, ip qd administered 24 hrs post challenge for 10 days; type: functional; conditions: read-out: GI
[6] = system: CCRF S-180; experiment: Antitumor activity against mouse S180 cells allografted in Kunming mouse assessed as tumor growth inhibition at 60 ug/kg, ip qd administered 24 hrs post challenge for 10 days; type: functional; conditions: CCRF S-180, ip, read-out: GI
[7] = Antitumor activity against mouse HepS cells allografted in Kunming mouse assessed as tumor growth inhibition at 40 ug/kg, ip qd administered 24 hrs post challenge for 10 days; type: functional; conditions: read-out: GI
[8] = system: CCRF S-180; experiment: Antitumor activity against mouse S180 cells allografted in Kunming mouse assessed as improved spleen index at 40 ug/kg, ip qd administered 24 hrs post challenge for 10 days; type: functional, organism-based
[9] = system: CCRF S-180; experiment: Antitumor activity against mouse S180 cells allografted in Kunming mouse assessed as tumor growth inhibition at 40 ug/kg, ip qd administered 24 hrs post challenge for 10 days; type: functional; conditions: CCRF S-180, ip, read-out: GI
[10] = system: HepS; experiment: Antitumor activity against mouse HepS cells allografted in Kunming mouse assessed as improved spleen index at 40 ug/kg, ip qd administered 24 hrs post challenge for 10 days; type: functional, organism-based
[11] = system: Mus musculus; experiment: Toxicity in Kunming mouse allografted with mouse HepS cells assessed as adverse effects at 60 ug/kg, ip qd administered 24 hrs post challenge for 10 days; type: organism-based; conditions: in vivo, 0.06 mg/kg
[12] = system: Mus musculus; experiment: Toxicity in Kunming mouse allografted with mouse S180 cells assessed as adverse effects at 60 ug/kg, ip qd administered 24 hrs post challenge for 10 days; type: organism-based, CCRF S-180; conditions: in vivo, 0.06 mg/kg

| SMILES | inhibition in vivo at 0.015 mg/kg [1] | growth inhibition (GI) [2] | growth inhibition (GI) [3] | inhibition in vivo at 0.015 mg/kg [4] | inhibition in vivo at 0.06 mg/kg [5] | inhibition in vivo at 0.06 mg/kg [6] | inhibition in vivo at 0.04 mg/kg [7] | Activity [8] | inhibition in vivo at 0.04 mg/kg [9] | Activity [10] | Activity [11] | Activity [12] |
| --- | --- | --- | --- | --- | --- | --- | --- | --- | --- | --- | --- | --- |
| CCCCCCCCCC[C@@H](O)[C@@H]1CC[C@@H]([C@@H]2CC[C@@H]([C@H](O)CCCCCCCCCC(O)CC3=CC(C)OC3=O)O2)O1 (some centres undefined) [BULLATACIN] | 63.4% | Dose-dependent effect | Dose-dependent effect | 65.8% | – | – | – | – | – | – | – | – |
| CCCCCC[C@H](O)CCC[C@H](O)[C@H]1CC[C@H]([C@H](O)CC[C@H](O)[C@@H]2CC[C@@H](CCCCCCCCCC3=C[C@H](C)OC3=O)O2)O1 [SQUAMOSTATIN A] | 15% | Dose-dependent effect | Dose-dependent effect | 52.7% | 31.2% | 54.2% | – | – | – | – | – | – |
| CCCCCCCCCC[C@@H](O)[C@@H]1CC[C@@H]([C@H](O)CC[C@@H](O)[C@@H]2CC[C@@H](CCCCCCCCCC3=C[C@H](C)OC3=O)O2)O1 [SQUAMOSTATIN E] | 34.2% | Dose-dependent effect | Dose-dependent effect | 27.2% | 51.3% | 51.1% | – | – | – | – | – | – |
| CCCCCCCCCC[C@H](O)[C@H]1CC[C@H]([C@H]2CC[C@H]([C@H](O)CCCCCCCCCCCCC3=C[C@H](C)OC3=O)O2)O1 [BULLANIN] | 32.5% | Dose-dependent effect | Dose-dependent effect | 42.3% | 70.9% | 63.9% | – | – | – | – | – | – |
| CC(=O)O[C@H]1C(=O)[C@@]2(C)[C@H]([C@H](OC(=O)c3ccccc3)[C@]3(O)C[C@H](OC(=O)[C@H](O)[C@@H](NC(=O)c4ccccc4)c4ccccc4)C(C)=C1C3(C)C)[C@]1(OC(C)=O)CO[C@@H]1C[C@@H]2O [PACLITAXEL] | – | – | – | – | – | – | 62.2% | Active | 48.9% | Active | – | – |
| CCCCCCCCCCCC[C@@H](O)[C@H]1CC[C@H]([C@H](O)CCCCCC(O)CCCCCCC2=C[C@H](C)OC2=O)O1 (some centres undefined) | 61.5% | Dose-dependent effect | Dose-dependent effect | 43.9% | 67.3% | 48.3% | – | – | – | – | – | – |
| CCCCCCCCCC[C@H](O)[C@H]1CC[C@H]([C@H]2CC[C@H]([C@H](O)CCCCCCCCCC[C@@H](O)CC3=C[C@H](C)OC3=O)O2)O1 [BULLATACIN] | – | – | – | – | – | – | – | – | – | – | Toxic | Toxic |
